From ChEMBL document CHEMBL3751722, “Discovery of C-shaped aurone human neutrophil elastase inhibitors” (Medchemcomm, 2015)

Key:
[1] = system: HEK293; assay: Cytotoxicity against HEK293 cells; details: Homo sapiens
[2] = molecular target: T1, Neutrophil elastase (Homo sapiens, UniProt P08246); assay: Inhibition of human neutrophil elastase pre-incubated for 30 mins before MeO-Suc-Ala-Ala-Pro-Val-AMC substrate addition by fluorometric assay
T1 sequence (P08246 whole entry): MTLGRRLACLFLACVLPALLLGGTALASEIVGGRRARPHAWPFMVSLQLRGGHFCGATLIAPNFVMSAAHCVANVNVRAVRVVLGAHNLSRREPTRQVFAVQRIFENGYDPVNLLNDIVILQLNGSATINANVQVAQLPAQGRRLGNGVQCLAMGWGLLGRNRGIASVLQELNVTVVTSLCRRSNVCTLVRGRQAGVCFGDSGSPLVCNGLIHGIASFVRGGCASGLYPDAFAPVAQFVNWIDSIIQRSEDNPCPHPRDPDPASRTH

[3] = Selectivity index, ratio of cytotoxic EC50 for HEK293 cells to IC50 for human neutrophil elastase

Structure (SMILES)	EC50 [1]	IC50 [2]	Selectivity Index [3]
O=Cc1ccc(-c2cccc(/C=C3\Oc4ccccc4C3=O)c2)cc1	> 100 µM	–	–
Cc1ccc(Oc2ccc(/C=C3\Oc4ccccc4C3=O)cc2)cc1	> 100 µM	> 10 µM	>20
Nc1ccc(-c2ccc(/C=C3\Oc4ccccc4C3=O)cc2)cn1	> 100 µM	–	–
O=C1/C(=C/c2ccc(Br)cc2)Oc2ccccc21	> 100 µM	–	–
O=C1/C(=C/c2cccc(Cc3ccccc3)c2)Oc2ccccc21	> 100 µM	–	–
O=C1/C(=C/c2ccc(-c3ccccc3)cc2)Oc2ccccc21	> 100 µM	–	–
O=C1/C(=C/c2cccc(-c3ccccc3)c2)Oc2ccccc21	> 100 µM	–	–
O=C1/C(=C/c2ccc(Nc3ccccc3)cc2)Oc2ccccc21	> 100 µM	–	–
O=C1/C(=C/c2ccc(NCc3ccccc3)cc2)Oc2ccccc21	> 100 µM	–	–
Cc1ccc(Oc2ccc(/C=C3\Oc4cc(O)ccc4C3=O)cc2)cc1	> 100 µM	–	–
O=C1/C(=C/c2ccccc2)Oc2cc(O)ccc21	> 100 µM	–	–
O=C1/C(=C/c2ccc(-c3cnc4ccccc4c3)cc2)Oc2ccccc21	> 100 µM	–	–
O=Cc1ccc(-c2ccc(/C=C3\Oc4ccccc4C3=O)cc2)cc1	> 100 µM	–	–
O=C1/C(=C/c2cccc(-c3cnc4ccccc4c3)c2)Oc2ccccc21	> 100 µM	–	–
O=C1/C(=C/c2ccc(Cc3ccccc3)cc2)Oc2ccccc21	> 100 µM	–	–
O=C1/C(=C/c2ccc(-c3ccc(F)cc3)cc2)Oc2ccccc21	> 100 µM	–	–
CN(C)c1ccc(/C=C2\Oc3ccccc3C2=O)cc1	> 100 µM	2.9 µM	>20
CN(C)c1ccc(/C=C2\Oc3cc(O)ccc3C2=O)cc1	> 100 µM	5.1 µM	>20
O=C1/C(=C/c2ccc(-c3ccc(Cl)cc3)cc2)Oc2ccccc21	> 100 µM	–	–
O=C1/C(=C/c2cccc(-c3ccc(Cl)cc3)c2)Oc2ccccc21	> 100 µM	–	–
O=C1/C(=C/c2ccccc2Br)Oc2ccccc21	> 100 µM	–	–
O=C1/C(=C/c2ccc(Oc3ccc(Cl)cc3)cc2)Oc2cc(O)ccc21	> 100 µM	–	–
O=C1/C(=C/c2cccc(Br)c2)Oc2ccccc21	> 100 µM	> 10 µM	>20
COc1cccc2c1O/C(=C\c1ccccc1)C2=O	> 100 µM	–	–
O=C1/C(=C/c2ccc(Oc3ccc(Cl)cc3)cc2)Oc2ccccc21	> 100 µM	–	–
